The conditions of data set [1]: 121 C for 10 min heat step; cited from earlier work.
The target in data set [2] is T1, E. coli RNA polymerase (Escherichia coli, UniProt P0A8T7+P0A8V2). The format is biochemical. Set-up: endogenous in cells; host or cells: E. coli cell-free lysate (extract eZS6 or eAC15, prepared per Sun et al. 2013). Particulars: lasso cluster co-expressed with sigma70 GFP reporter in E. coli cell-free system.
Method: All reactions contain 40019 in plasmid form at 2.66 nM, and the reaction is done in E. coli extract “eZS6” at 25% lysate, 75% buffer concentration, prepared as listed in (Sun et al., 2013) or “eAC15” at 30% lysate, 70% buffer concentration. GFP concentration was kept at 2 nM, and the other components kept at a total of 6 nM to control for competition affects.
These are run in a E. coli-based cell-free lysate system in different concentrations, as listed by nM concentrations described in the chart, with all reactions containing 4 nM sigma70-UTR1-GFP and 3.5 μM gamS to protect linear templates.
Our expression system incorporates these coding sequences individually with a sigma70 promoter, UTR and terminator. […] A GFP construct (40019 in linear) was assembled in the same way. Linear DNAs were generated either by PCR amplification from plasmid or the DNA assemblies themselves. We used 3.5 μM GamS to prevent template degradation in E. coli lysate. Reactions were run at 10 μl scale in a 384-well format. The reaction is done in E. coli extract “eZS6” at 25% lysate, 75% buffer concentration, prepared as listed in (Sun et al., 2013). Timecourses of GFP intensity were taken, and 12 hr endpoints were used to generate the heatmap. GFP intensity of lasso-cluster-containing reaction was normalized to their paired negative controls.
We expressed our GFP construct in the same reactions as our lasso constructs. GFP (4009 in linear) was expressed at 4 nM and the lasso cluster genes at 0.6 nM.
Data set [3] deals with E. coli. As to conditions: cited from earlier work.
Data set [4] concerns Salmonella. As to conditions: mouse models; cited from earlier work.
The subject of data set [5] is E. coli. It is filed as cell-based. Particulars: purified microcin J25 added to cellular reactions, E. coli cell death. As to the method:
(A) Cell-free assay of mccj25 activity. […] (B) Inhibition of E. coli in vivo growth by purified microcin J25. Data, final concentrations.
It is seen in FIG. 7B that adding purified microcin J25 to cellular reactions causes cell death with a MIC of 0.1 uM. If microcin J25 produced in cell-free systems is at high enough concentration, those skilled in the art will recognize that the MIC curve for killing live E. coli will be the similar. However, avoiding phage in the reaction is essential to ensure that the MIC is accurate and not caused by propogation of infecting phage carried over in a typical cell-free reaction that is contaminated with phage.

Data set [6] has as its target T1, E. coli RNA polymerase. As to conditions: has been shown previously; cited from earlier work.
Data set [7] is classed as in vitro ADME, E. coli. The protocol:
Linear constructs were expressed in 10 μl cell free reactions with 2% flurotect (a tRNA carrying a BODIPY labelled lysine) and 8 nM DNA constructs for MBP-A or MBP (1065, 1066). 2 μl of these reactions were prepared in 20 μl sample buffer (50 mM bis-Tris, 2% SDS, 10% glycerol) and run on a 4-12% bis-tris PAGE gel (ThermoFisher Scientific) at 200V for 20 min.
To stabilize mcjA, the peptide can be tagged either on the N terminus or the C terminus as a fusion protein that provides a stable domain that prevents proteolysis of mcjA. A linker and/or targeting region can be added to remove the tag. In an example, we tag mcjA with a maltose binding protein (MBP), generating a construct 1065 (SEQ ID NO.: 19) and compare the expression of 1065 to a wildtype MBP, 1066 (SEQ ID NO.: 20). In a SDS-PAGE gel expressing both constructs in FIG. 18, the expressed fusion protein was stable and easily visualized on a gel.

≈ marks a conversion by molar mass, not a printed value. Read-outs that look alike come from different tables or passages of the source. Where a SMILES comes first, the peptide text is derived from it. Bridges are numbered along the chain shown (N, C = ends).

Broadly, the MIC is the smallest concentration in the dilution series that meets the test's criterion for growth inhibition.

T1 sequence (P0A7Z4 whole entry): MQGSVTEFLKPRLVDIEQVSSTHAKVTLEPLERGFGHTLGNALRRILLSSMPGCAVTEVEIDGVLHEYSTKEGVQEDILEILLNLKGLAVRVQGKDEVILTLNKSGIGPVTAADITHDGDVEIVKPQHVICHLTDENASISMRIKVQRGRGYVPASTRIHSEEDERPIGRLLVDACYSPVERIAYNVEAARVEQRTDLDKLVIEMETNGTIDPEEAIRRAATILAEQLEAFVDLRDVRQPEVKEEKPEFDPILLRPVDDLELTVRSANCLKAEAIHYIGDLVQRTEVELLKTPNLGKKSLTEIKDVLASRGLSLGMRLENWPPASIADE
T1 sequence (P0A8V2 whole entry): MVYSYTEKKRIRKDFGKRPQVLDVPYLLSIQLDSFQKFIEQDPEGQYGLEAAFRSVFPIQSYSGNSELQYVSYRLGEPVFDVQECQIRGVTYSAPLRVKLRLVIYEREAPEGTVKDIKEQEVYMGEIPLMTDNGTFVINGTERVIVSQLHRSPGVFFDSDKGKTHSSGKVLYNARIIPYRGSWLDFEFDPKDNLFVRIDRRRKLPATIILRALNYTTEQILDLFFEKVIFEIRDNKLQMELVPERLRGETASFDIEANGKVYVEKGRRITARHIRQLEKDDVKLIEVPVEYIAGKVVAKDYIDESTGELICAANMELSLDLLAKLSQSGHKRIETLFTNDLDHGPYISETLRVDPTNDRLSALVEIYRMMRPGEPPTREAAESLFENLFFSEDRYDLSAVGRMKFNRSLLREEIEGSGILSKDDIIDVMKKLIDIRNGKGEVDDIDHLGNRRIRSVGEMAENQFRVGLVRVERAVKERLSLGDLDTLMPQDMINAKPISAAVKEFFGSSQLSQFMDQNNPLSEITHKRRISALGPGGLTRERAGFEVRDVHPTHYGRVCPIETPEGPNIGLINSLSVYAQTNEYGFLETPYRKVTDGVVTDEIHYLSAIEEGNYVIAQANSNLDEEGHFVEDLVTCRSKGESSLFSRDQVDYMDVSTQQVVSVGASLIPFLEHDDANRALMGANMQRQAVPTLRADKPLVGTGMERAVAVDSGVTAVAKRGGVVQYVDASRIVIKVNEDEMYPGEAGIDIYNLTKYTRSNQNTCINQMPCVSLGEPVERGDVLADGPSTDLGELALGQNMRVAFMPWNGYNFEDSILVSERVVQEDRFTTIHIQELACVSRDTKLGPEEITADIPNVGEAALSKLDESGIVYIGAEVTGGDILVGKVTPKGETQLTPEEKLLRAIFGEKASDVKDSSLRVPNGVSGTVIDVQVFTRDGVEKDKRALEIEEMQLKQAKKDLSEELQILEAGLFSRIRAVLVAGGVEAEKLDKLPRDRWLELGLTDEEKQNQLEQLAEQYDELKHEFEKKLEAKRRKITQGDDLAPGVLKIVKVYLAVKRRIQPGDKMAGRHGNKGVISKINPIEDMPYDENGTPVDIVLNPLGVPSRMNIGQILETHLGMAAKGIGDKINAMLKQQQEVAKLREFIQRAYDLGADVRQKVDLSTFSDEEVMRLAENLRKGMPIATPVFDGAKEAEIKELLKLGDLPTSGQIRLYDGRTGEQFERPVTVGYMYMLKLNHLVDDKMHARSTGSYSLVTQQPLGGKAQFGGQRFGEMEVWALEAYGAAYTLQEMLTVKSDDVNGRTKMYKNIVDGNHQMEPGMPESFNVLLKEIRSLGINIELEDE
T1 sequence (P00579 whole entry, further chain): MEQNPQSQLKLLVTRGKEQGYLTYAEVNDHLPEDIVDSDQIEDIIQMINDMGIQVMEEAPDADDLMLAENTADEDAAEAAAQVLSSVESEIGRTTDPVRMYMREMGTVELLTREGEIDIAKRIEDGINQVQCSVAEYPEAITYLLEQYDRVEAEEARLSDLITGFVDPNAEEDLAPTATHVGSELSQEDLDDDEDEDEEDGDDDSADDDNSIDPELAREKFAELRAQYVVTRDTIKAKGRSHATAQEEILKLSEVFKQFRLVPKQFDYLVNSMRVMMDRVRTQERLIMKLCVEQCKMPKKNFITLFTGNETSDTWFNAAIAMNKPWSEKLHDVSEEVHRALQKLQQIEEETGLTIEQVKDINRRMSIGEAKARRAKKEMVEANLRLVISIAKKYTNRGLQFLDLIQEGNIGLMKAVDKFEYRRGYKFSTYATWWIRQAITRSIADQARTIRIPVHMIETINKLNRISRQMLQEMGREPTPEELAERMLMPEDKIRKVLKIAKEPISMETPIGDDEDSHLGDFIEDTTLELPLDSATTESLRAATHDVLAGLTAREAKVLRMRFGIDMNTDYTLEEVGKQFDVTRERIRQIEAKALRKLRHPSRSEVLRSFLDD
T1 sequence (P0A8T7 whole entry): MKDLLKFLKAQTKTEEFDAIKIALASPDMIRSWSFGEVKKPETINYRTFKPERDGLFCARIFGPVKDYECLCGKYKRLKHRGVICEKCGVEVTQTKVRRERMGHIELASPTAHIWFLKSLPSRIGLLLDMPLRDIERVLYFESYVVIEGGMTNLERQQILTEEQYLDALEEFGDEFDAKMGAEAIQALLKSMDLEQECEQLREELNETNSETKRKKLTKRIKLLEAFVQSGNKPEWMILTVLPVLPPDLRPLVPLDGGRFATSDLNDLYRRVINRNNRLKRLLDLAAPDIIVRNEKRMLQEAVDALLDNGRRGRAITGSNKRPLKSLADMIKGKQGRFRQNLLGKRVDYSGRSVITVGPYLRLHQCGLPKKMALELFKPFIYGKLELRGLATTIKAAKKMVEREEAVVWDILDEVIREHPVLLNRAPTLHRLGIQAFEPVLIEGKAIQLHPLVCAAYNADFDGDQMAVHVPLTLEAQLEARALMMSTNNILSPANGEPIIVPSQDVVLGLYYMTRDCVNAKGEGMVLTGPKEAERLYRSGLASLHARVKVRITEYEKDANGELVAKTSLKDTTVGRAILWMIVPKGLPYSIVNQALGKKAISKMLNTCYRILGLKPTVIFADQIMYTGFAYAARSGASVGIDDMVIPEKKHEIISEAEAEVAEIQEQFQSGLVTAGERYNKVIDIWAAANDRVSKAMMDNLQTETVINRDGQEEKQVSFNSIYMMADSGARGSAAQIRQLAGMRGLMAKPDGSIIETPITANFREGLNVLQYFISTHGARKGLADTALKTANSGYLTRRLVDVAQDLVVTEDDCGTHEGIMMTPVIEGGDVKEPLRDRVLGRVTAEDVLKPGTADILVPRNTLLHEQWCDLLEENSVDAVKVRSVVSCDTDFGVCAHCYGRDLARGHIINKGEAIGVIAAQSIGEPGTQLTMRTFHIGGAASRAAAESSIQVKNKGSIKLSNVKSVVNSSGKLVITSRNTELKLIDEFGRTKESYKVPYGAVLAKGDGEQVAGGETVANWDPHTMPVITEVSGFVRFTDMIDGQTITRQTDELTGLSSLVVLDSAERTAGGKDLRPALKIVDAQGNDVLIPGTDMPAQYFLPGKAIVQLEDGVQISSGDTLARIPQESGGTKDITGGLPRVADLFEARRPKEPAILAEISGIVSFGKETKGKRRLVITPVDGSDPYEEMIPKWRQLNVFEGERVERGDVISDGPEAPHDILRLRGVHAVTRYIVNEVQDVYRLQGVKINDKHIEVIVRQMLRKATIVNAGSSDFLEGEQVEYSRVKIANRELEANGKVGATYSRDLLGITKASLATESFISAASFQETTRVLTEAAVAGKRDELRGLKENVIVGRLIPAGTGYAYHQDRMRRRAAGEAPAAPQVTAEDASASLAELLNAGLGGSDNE
T1 sequence (P0A800 whole entry, further chain): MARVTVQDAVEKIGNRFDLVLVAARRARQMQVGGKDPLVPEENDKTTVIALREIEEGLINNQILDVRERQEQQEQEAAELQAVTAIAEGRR

Take `CC[C@H](C)[C@H](NC(=O)CNC(=O)[C@@H](NC(=O)[C@H](Cc1ccccc1)NC(=O)[C@H](Cc1ccc(O)cc1)NC(=O)[C@@H]1CCC(=O)NCC(=O)NCC(=O)N[C@@H](C)C(=O)NCC(=O)N[C@@H](Cc2cnc[nH]2)C(=O)N[C@@H](C(C)C)C(=O)N2CCC[C@H]2C(=O)N1)C(C)C)C(=O)NCC(=O)N[C@H](C(=O)N1CCC[C@H]1C(=O)N[C@H](C(=O)N[C@@H](CO)C(=O)N[C@@H](Cc1ccccc1)C(=O)N[C@@H](Cc1ccc(O)cc1)C(=O)NCC(=O)O)[C@@H](C)CC)[C@@H](C)O` [microcin J25] (GGAGHVPEYFVGIGTPISFYG-OH; lactam N-8): the heat stability result in data set [1] was “heat-stable”.
On to `CC[C@H](C)[C@H](NC(=O)CNC(=O)[C@@H](NC(=O)[C@H](Cc1ccccc1)NC(=O)[C@H](Cc1ccc(O)cc1)NC(=O)[C@@H]1CCC(=O)NCC(=O)NCC(=O)N[C@@H](C)C(=O)NCC(=O)N[C@@H](Cc2c[nH]cn2)C(=O)N[C@@H](C(C)C)C(=O)N2CCC[C@H]2C(=O)N1)C(C)C)C(=O)NCC(=O)N[C@H](C(=O)N1CCC[C@H]1C(=O)N[C@H](C(=O)N[C@@H](CO)C(=O)N[C@@H](Cc1ccccc1)C(=O)N[C@@H](Cc1ccc(O)cc1)C(=O)NCC(=O)O)[C@@H](C)CC)[C@@H](C)O` [microcin J25] (GGAGHVPEYFVGIGTPISFYG-OH; lactam N-8; C-terminus assumed), for which the “knockdown of GFP expression / native RNA polymerase” value in data set [2] is on record as “knocks down GFP expression”; in data set [2] (listed as microcinJ25) it was “functional knockdown”. The MIC in data set [3] was 0.02 µg/mL (≈ 9.49 nM); in data set [5], 0.1 µM (≈ 0.211 µg/mL). In data set [4], the “decrease in Salmonella infection” value was 3 fold.
For the compound caulosegnin, in data set [2], the “knockdown of GFP expression / native RNA polymerase” value is listed as “no effect on GFP expression”. In addition, the “RNA polymerase inhibitory activity” value in data set [6] is “not to have RNA polymerase inhibitory activity”.
For the compound klebsidin, the “knockdown of GFP expression / native RNA polymerase” value in data set [2] is given as “functional knockdown”.
For “mcjA: peptide precursor (propeptide) of microcin J25 (MIKHFHFNKLSSGKKNNVPSPAKGVIQIKKSASQLTKGGAGHVPEYFVGIGTPISFYG; full-length; UniProt Q9X2V7 1-58, looked up)”, the “stability when expressed in E. coli cell-free systems” value in data set [7] is recorded as “known to degrade”.

Source of the values: patent US20200109429A1, “Methods and Systems for Cell-Free Biodiscovery of Natural Products” (Synvitrobio, Inc., priority 2017, published 2020).
